# Patent publication EP3876933B1, “NEUTROPHIL INFLAMMATION INHIBITOR AND USES THEREOF” (Chang Gung University of Science and Technology, priority 2018, dated 2020)
# How the values were obtained:
# [1] = Liver and kidney function (blood ALT, AST, BUN, creatinine) in imiquimod-induced mice; format: in vivo, BALB/c mice; conditions: HKI-4971 20 mg/kg intraperitoneal, alone or in combination with IMQ; n=3
# Procedure: (§1) Male BALB/c mice aged 7-8 weeks were used for the development of the imiquimod-induced psoriatic-like plaque model. The dorsal skin of the mice were shaved and received a daily topical dose of 62.5 mg of 5% imiquimod (IMQ) cream (Aldara, MEDA Pharma, Sweden) with or without a test compound (e.g., HKI-4971) treatment by intraperitoneal injection for 7 consecutive days.
# In this example, the effect of HKI-4971 (or compound 13) on the development of psoriasis was investigated using the well-established psoriasis animal model, in which imiquimod (IMQ) was used to induce psoriasis-like skin inflammation. Briefly, BALB/c mice are pre-treated by intraperitoneal injection of HKI-4971 (20 mg/kg) for 30 min before 5% IMQ cream was topically administered onto the back of the mice every day for 7 days. Then, skin samples taken from these animals were subjected to microscopy examination and immunohistochemistry staining, while blood samples were subjected to analysis for liver and kidney functions. Results are depicted in FIGs 1 to 3.
# Blood samples taken from IMQ- or IMQ+HKI-4971 treated animals were analyzed for the levels of alanine aminotransferase and aspartate transaminase, which were used as indicators for assessing liver function; and the levels of blood […] nitrogen (BUN) and creatinine (CRE), which were used as indicators for assessing the kidney function. […]
# [2] = test system: human neutrophils; assay: Elastase release in fMLF/CB-activated human neutrophils (Methoxysuccinyl-Ala-Ala-Pro-Val-p-nitroanilide substrate); format: cell-based; conditions: Neutrophil; for inhibition at 10 µM: at 10 µM concentration
# Procedure: (§2) Human neutrophils were obtained in lipopolysaccharide-free conditions by means of dextran sedimentation and Ficoll centrifugation.
# Methoxysuccinyl-Ala-Ala-Pro-Val-p-nitroanilide was employed as the elastase substrate for the determination of elastase release. Briefly, after supplementation with Methoxysuccinyl-Ala-Ala-Pro-Val-p-nitroanilide (100 µM), neutrophils (6 × 10^5/mL) were equilibrated at 37 °C for 2 min and incubated with a candidate compound at various concentrations for 5 min. Cells were then activated with fMLF (0.1 µM) for 10 min in the pre-process of CB (0.5 µg/mL) for 3 min, and changes in absorbance at 405 nm were continuously monitored to evaluate elastase release. Results are expressed as the percentage of elastase release in the drug-free control group, DMSO.
# [3] = test system: human neutrophils; assay: Superoxide anion (O2˙-) generation in fMLF/CB-activated human neutrophils (SOD-inhibitable ferricytochrome c reduction); format: cell-based; conditions: for IC50 / inhibition at 10 µM: Neutrophil
# Procedure: as §2
# O2˙^- production was determined based on the SOD-inhibitable reduction of ferricytochrome c. Briefly, neutrophils (6 × 10^5/mL) were treated with a candidate compound at 37 °C at various concentrations (0.001 to 10 µM) for 5 min after being supplementing with 0.5 mg/mL ferricytochrome c and 1 mM Ca^2+. Cells were then activated with fMLF (0.1 µM) for 10 min in the pre-process of cytochalasin B (CB, 1 µg/mL) for 3 min. Changes in absorbance with the reduction of ferricytochrome c at 550 nm were continuously monitored in a double-beam, six-cell positioner spectrophotometer with constant stirring (Hitachi U-3010, Tokyo, Japan). Calculations were based on the differences in the reactions with and without SOD (100 U ml^-1) divided by the extinction coefficient for the reduction of ferricytochrome c (ε = 21.1 mM^-1/10 mm).
# [4] = test system: LPS-induced ALI; assay: LPS-induced acute lung injury (ALI) in mice (lung MPO activity, H&E, immunohistochemistry); format: in vivo, BALB/c mice; conditions: 20 mg/Kg intravenous 1 hr before intratracheal LPS (2 mg/Kg), 5 hrs
# Procedure: (§3) Male BALB/c mice aged 7-8 weeks were purchased from BioLASCO (Taipei, Taiwan) and maintained in a room with 12 hr light/dark cycles. Standard laboratory chow and water were available ad libitum. All animal experimental procedures were performed in accordance with guidelines and approved by the Institutional Animal Care and Use Committee of Chang Gung University.
# Mice were pre-treated with a candidate compound (e.g., HKI-4971), which was dissolved in 50 µl saline solution containing 10% DMSO and 20% Kolliphor EL (Sigma-Aldrich, USA), by intravenous injection. […]
# Lung tissues were homogenized in PBS (50 Mm, pH 6.0) containing 0.5% (w/v) hexadecyltrimethylammonium bromide (HETAB) (Sigma-Aldrich, USA) by using the MagNA Lyser Instrument (Roche, Germany), and was further centrifuged at 12,000 ×g for 20 min at 4°C to remove the insoluble material. The peroxidase activity was measured as the oxidation of o-Dianisidine dihydrochloride (Sigma-Aldrich, USA). […] The absorption was determined spectrophotometrically at 405 nm. […]
# In this example, the Gram-negative bacterial endotoxin LPS induced ALI in mice was employed to mimic ARDS in human, and the effect of HKI-4971 was evaluated. […]
# [5] = test system: imiquimod-induced psoriasis; assay: Imiquimod-induced psoriasis-like skin inflammation in mice (phenotype, H&E, immunohistochemistry); format: in vivo, BALB/c mice; conditions: 20 mg/kg intraperitoneal, 30 min before 5% IMQ cream, every day for 7 days
# Procedure: as §3, §1
# Tissue samples were fixed in 10% neutral buffered formalin and embedding in paraffin blocks. Sections of the samples were prepared at 5 µm thickness and stained with hematoxylin and eosin (H&E). For immunohistochemistry staining, the sections were incubated with primary antibodies against Ly6g, MPO, and ki67 then the secondary antibody was applied for the detection of the primary antibody according to the manufacturer's instructions of the SuperPicture Polymer Detection Kit (Thermo Fisher, USA). Finally, the section slides were subsequently stained with DAB chromogen and counterstained with hematoxylin. […]
# [6] = FMLP/CB-induced human neutrophils, mean ± S.E.M. (n = 3-5), read-out: Elastase Release IC50
# [7] = FMLP/CB-induced human neutrophils, mean ± S.E.M. (n = 3-5)
# [8] = FMLP/CB-induced human neutrophils, mean ± S.E.M. (n = 3-5), read-out: Superoxide Anion IC50
# [9] = at 10 µM concentration, FMLP/CB-induced human neutrophils, mean ± S.E.M. (n = 3-5)
SMILES,"functions of liver or kidney (alanine aminotransferase, aspartate transaminase, BUN, CRE in blood) [1]","IC50 ([2]; Homo sapiens, neutrophils in response to fMLF, Table 2, read-out: IC50 for suppressing elastase release) [µM]","IC50 [2, 6] [µM]","inhibition at 10 µM [2, 7] [%]","IC50 ([3]; Homo sapiens, neutrophils in response to fMLF, Table 2, read-out: IC50 for suppressing the superoxide anion generation) [µM]","IC50 [3, 8] [µM]","inhibition at 10 µM [3, 9] [%]",LPS-induced neutrophil infiltration and lung injury (H&E and neutrophil markers in lung sections) [4],MPO activity in lung tissues ([4]; n=3),"markers for cell proliferation (ki-67) and for neutrophils (Ly6g and MPO), immunostaining of skin samples [5]",severity or progression of IMQ-induced psoriasis [5],"Superoxide Anion Inhibition % [3, 9]"
"Cn1nc(N)c2c(Nc3ccc(O)cc3)nc3ccccc3c21 [Compound 13, 4-(4-Hydroxyanilino)-1-methyl-1H-pyrazolo[4,3-c]quinolin-3-amine]",did not result in significant damage,~0.032,0.0321 ± 0.0174,105 ± 2.53,~0.0037,0.00369 ± 0.00174,88.1 ± 1.19,significantly alleviated,suppressed,reduced,reduce the severity or progression,–
"COc1ccc(Nc2nc3ccccc3c3c2c(N)nn3C)cc1 [Compound 7, 4-(4-Methoxyanilino)-1-methyl-1H-pyrazolo[4,3-c]quinolin-3-amine]",–,–,3.77 ± 0.71,96.7 ± 6.56,–,0.51 ± 0.17,99.3 ± 1.51,–,–,–,–,–
"COc1ccccc1Nc1nc2ccccc2c2c1c(N)nn2C [Compound 5, 4-(2-Methoxyanilino)-1-methyl-1H-pyrazolo[4,3-c]quinolin-3-amine]",–,–,4.65 ± 2.57,66 ± 6.51,–,1.37 ± 0.08,90.1 ± 3.38,–,–,–,–,–
"Nc1noc2c1c(Nc1ccc(O)cc1)nc1ccccc12 [Compound 29, 4-(4-Hydroxyanilino)isoxazolo[4,5-c]quinolin-3-amine]",–,–,> 10,29.9 ± 6.66,–,0.65 ± 0.2,91.1 ± 0.38,–,–,–,–,–
"Cn1nc(N)c2c(Nc3cccc(O)c3)nc3ccccc3c21 [Compound 12, 4-(3-Hydroxyanilino)-1-methyl-1H-pyrazolo[4,3-c]quinolin-3-amine]",–,–,4.62 ± 1.74,94.4 ± 8.34,–,1.89 ± 0.69,93.2 ± 3.66,–,–,–,–,–
"COc1ccc(Nc2nc3ccccc3c3onc(N)c23)cc1 [Compound 23, 4-(4-Methoxyanilino)isoxazolo[4,5-c]quinolin-3-amine]",–,–,> 10,-9.67 ± 3.44,–,8.59 ± 0.29,59.1 ± 2.03,–,–,–,–,–
"Nc1noc2c1c(Nc1ccc(Cl)cc1)nc1ccccc12 [Compound 32, 4-(4-Chloroanilino)isoxazolo[4,5-c]quinolin-3-amine]",–,–,> 10,3.69 ± 3.42,–,> 10,38.6 ± 2.3,–,–,–,–,–
"CC(=O)c1ccc(Nc2nc3ccccc3c3c2c(N)nn3C)cc1 [Compound 10, 4-(4-Acetoylanilino)-1-methyl-1H-pyrazolo[4,3-c]quinolin-3-amine]",–,–,4.63 ± 1.1,57.2,–,1.58,85.1 ± 1.66,–,–,–,–,–
"Nc1noc2c1c(Nc1ccc(C(F)(F)F)cc1)nc1ccccc12 [Compound 30, 4-(4-Trifluoromethylanilino)isoxazolo[4,5-c]quinolin-3-amine]",–,–,6.23 ± 0.52,81.5 ± 6.97,–,–,–,–,–,–,–,enhanced
"Nc1noc2c1c(Nc1ccc(F)cc1)nc1ccccc12 [Compound 20, 4-(4-Fluoroanilino)isoxazolo[4,5-c]quinolin-3-amine]",–,–,> 10,10.7 ± 4,–,6.16 ± 1.18,63.2 ± 7.76,–,–,–,–,–
"COc1cc(Nc2nc3ccccc3c3onc(N)c23)cc(OC)c1OC [Compound 24, 4-(3,4,5-Trimethoxyanilino)isoxazolo[4,5-c]quinolin-3-amine]",–,–,> 10,-10.6 ± 3.81,–,> 10,17.1 ± 3.77,–,–,–,–,–
"Cn1nc(N)c2c(Nc3ccc(C(F)(F)F)cc3)nc3ccccc3c21 [Compound 14, 4-(4-Trifluoromethylanilino)-1-methyl-1H-pyrazolo[4,3-c]quinolin-3-amine]",–,–,> 10,37.6 ± 6.22,–,4.56 ± 0.83,63.1 ± 2.51,–,–,–,–,–
"Cc1ccc(Nc2nc3ccccc3c3c2c(N)nn3C)cc1 [Compound 18, 4-(4-Methylanilino)-1-methyl-1H-pyrazolo[4,3-c]quinolin-3-amine]",–,–,> 10,39.7 ± 3.83,–,5.21 ± 1.9,69.7 ± 7.05,–,–,–,–,–
"Cn1nc(N)c2c(Nc3ccc(Cl)cc3)nc3ccccc3c21 [Compound 17, 4-(4-Chloroanilino)-1-methyl-1H-pyrazolo[4,3-c]quinolin-3-amine]",–,–,5.28 ± 0.66,75.8 ± 6.64,–,3.49 ± 1.25,82.8 ± 5.36,–,–,–,–,–
"COc1cccc(Nc2nc3ccccc3c3c2c(N)nn3C)c1 [Compound 6, 4-(3-Methoxyanilino)-1-methyl-1H-pyrazolo[4,3-c]quinolin-3-amine]",–,–,> 10,33.4 ± 6.04,–,> 10,27.5 ± 5.47,–,–,–,–,–
"Cn1nc(N)c2c(Nc3ccc(F)cc3)nc3ccccc3c21 [Compound 4, 4-(4-Fluoroanilino)-1-methyl-1H-pyrazolo[4,3-c]quinolin-3-amine]",–,–,5.5 ± 1.5,68 ± 6.8,–,1.44 ± 0.22,91.2 ± 4.43,–,–,–,–,–
